Molecules are shown by their SMILES. “Also recorded” adds a separate entry of the source. Read-outs that look alike come from different tables or passages of the source.

These results are taken from article PMC6505943, “Identification of a potential allosteric site of Golgi α-mannosidase II using computer-aided drug design” (PLoS ONE, 2019).

The subject of experiment [1] is β-glucosidase of sweet almonds. In words: selectivity enzyme assay with β-glucosidase of sweet almonds (4-MU-Glc substrate). Type of experiment: biochemical. The method, then:
(§1) Inhibition assays with dGMII were performed at pH 5.75 in MES buffer (40 mM), supplemented with bovine serum albumin 1.1% (0.1% final concentration in MES buffer) and ZnSO4-solution 1.1% (0.1% final concentration in MES buffer). The recombinantly expressed and purified enzyme was added to a final concentration of 0.002 mg/mL per well. 4-Methylumbellifer-7-yl-α-D-mannopyranoside (4-MU-Man) was synthesized (S1 File and S2 Fig) and used as substrate with a final concentration of 1 mM per well. The total reaction volume was 50 μL and the mixture was incubated at 37°C for five minutes. […] The release of 4-methylumbelliferone was measured for 15 min by fluorescence spectroscopy using Greiner 96 Flat Bottom Black Polystyrol plates and a Tecan Reader Infinite F200 PRO equipped with a filter system (355 nm excitation and 485 nm emission). Assays in order to investigate the selectivity of compounds between different mannosidases were carried out on JBM. Assays concerning the selectivity between the desired mannosidase inhibition and a potential glucosidase inhibition were carried out on the β-glucosidase of sweet almonds using 4-methylumbelliferyl-β-D-glucopyranoside (4-MU-Glc) as substrate. The substrate 4-MU-Glc was synthesized as described in the supplementary information (S1 File and S3 Fig). JBM and β-glucosidase from sweet almonds were purchased from Sigma Aldrich. […]

The target of experiment [2] is T1, Golgi α-mannosidase II from Drosophila melanogaster (dGMII) (Drosophila melanogaster, UniProt Q24451).
T1 construct: His tag; made in house; host or cells: Drosophila Schneider 2 (S2) cells, secreted into the medium
T1 sequence (Q24451 76-1108 limits assumed): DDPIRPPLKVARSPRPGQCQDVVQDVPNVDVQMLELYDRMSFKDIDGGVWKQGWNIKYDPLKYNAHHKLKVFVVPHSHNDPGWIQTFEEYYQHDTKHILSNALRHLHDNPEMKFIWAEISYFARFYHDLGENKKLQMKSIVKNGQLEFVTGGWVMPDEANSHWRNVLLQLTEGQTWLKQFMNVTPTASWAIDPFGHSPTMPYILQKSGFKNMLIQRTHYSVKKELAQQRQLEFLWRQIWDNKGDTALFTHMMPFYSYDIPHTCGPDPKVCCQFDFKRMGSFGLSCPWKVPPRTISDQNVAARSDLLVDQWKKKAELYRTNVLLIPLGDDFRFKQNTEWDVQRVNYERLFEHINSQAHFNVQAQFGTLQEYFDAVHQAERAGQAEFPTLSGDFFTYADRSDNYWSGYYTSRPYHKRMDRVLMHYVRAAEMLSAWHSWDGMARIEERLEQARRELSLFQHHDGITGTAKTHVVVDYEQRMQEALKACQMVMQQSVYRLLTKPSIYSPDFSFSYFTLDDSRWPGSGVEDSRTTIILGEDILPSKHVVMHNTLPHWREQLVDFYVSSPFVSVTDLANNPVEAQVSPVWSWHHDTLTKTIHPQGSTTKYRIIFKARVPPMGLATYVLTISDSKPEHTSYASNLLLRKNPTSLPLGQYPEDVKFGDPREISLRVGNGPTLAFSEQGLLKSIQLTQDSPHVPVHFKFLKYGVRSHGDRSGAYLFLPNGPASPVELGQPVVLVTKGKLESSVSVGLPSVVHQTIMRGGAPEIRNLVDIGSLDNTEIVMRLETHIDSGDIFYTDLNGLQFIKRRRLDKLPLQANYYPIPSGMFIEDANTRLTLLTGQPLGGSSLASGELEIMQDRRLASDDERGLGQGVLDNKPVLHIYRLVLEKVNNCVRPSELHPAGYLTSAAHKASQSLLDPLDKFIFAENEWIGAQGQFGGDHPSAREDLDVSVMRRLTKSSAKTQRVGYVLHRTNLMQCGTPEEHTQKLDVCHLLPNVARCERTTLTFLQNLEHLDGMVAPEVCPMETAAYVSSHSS
Description: fluorometric enzyme inhibition assay with dGMII (4-MU-Man substrate). The experiment is classed as biochemical. The conditions noted are these: for inhibition at 300 µM: at 300 μM compound, 1 mM 4-MU-Man, pH 5.75. The method, then:
Inhibition assays with dGMII were performed at pH 5.75 in MES buffer (40 mM), supplemented with bovine serum albumin 1.1% (0.1% final concentration in MES buffer) and ZnSO4-solution 1.1% (0.1% final concentration in MES buffer). The recombinantly expressed and purified enzyme was added to a final concentration of 0.002 mg/mL per well. 4-Methylumbellifer-7-yl-α-D-mannopyranoside (4-MU-Man) was synthesized (S1 File and S2 Fig) and used as substrate with a final concentration of 1 mM per well. The total reaction volume was 50 μL and the mixture was incubated at 37°C for five minutes. […] The release of 4-methylumbelliferone was measured for 15 min by fluorescence spectroscopy using Greiner 96 Flat Bottom Black Polystyrol plates and a Tecan Reader Infinite F200 PRO equipped with a filter system (355 nm excitation and 485 nm emission). Assays in order to investigate the selectivity of compounds between different mannosidases were carried out on JBM. Assays concerning the selectivity between the desired mannosidase inhibition and a potential glucosidase inhibition were carried out on the β-glucosidase of sweet almonds using 4-methylumbelliferyl-β-D-glucopyranoside (4-MU-Glc) as substrate. The substrate 4-MU-Glc was synthesized as described in the supplementary information (S1 File and S3 Fig). JBM and β-glucosidase from sweet almonds were purchased from Sigma Aldrich. The enzyme β-glucosidase from sweet almonds was diluted in citrate buffer in order to obtain a concentration of 0.04 mg/mL. The inhibition assays were carried out at a pH of 5.0 in citrate buffer (20 mM). The substrate concentration was chosen to be 1 mM per well in accordance with the results of several KM value determinations since this concentration ensures good enzyme activity (KM = 1.9 ± 0.1 mM). Inhibition assays JBM were performed in the same buffer as for dGMII. The final concentration of the enzyme per well was 0.003 mg/ml. The substrate 4-MU-Man was used with a final concentration of 0.4 mM per well. The conducted assays with JBM and the β-glucosidase from sweet almonds were performed as described for dGMII.
The most promising compounds according to the molecular modeling studies were tested at 300 μM final concentration except for compound 24 which was tested at 100 μM per well due to the small amount available. […] The inhibition was calculated with the following Eq (2): Inhibition(%)=(1−activity(withinhibitor)/activity(withoutinhibitor))∙100 (2)
KM values were calculated using the Michaelis-Menten kinetics Eq (3) v=vmax[S]/KM+[S] (3) whereby vmax is the maximal velocity, [S] the substrate concentration and KM the substrate concentration yielding a velocity of vmax/2.
IC50 values were calculated using following Eq (4): y=ymax−ymin/1+([I]/IC50)^S+ymin (4) whereby ymax is defined as 100% enzyme activity, ymin as 0% enzyme activity, s is defined as the slope of the linear part of the curves (Hill coefficient), and [I] represents the inhibitor concentration. For the KM value determination, substrate concentrations ranging from 0.4 to 8.0 mM for dGMII and from 0.008 to 1.6 mM for JBM were used. For the IC50 determination of swainsonine, concentrations ranging from 6 to 120 nM were applied. […] The program GraFit (5.0.13, Erithacus Software, Horley, Surrey, UK (2006)) was used to calculate the IC50 values.

A further experiment has as its target T2, JBM (Canavalia ensiformis, UniProt C0HJB3).
T2 construct: purchased Sigma Aldrich
T2 sequence (C0HJB3 1-562 limits assumed): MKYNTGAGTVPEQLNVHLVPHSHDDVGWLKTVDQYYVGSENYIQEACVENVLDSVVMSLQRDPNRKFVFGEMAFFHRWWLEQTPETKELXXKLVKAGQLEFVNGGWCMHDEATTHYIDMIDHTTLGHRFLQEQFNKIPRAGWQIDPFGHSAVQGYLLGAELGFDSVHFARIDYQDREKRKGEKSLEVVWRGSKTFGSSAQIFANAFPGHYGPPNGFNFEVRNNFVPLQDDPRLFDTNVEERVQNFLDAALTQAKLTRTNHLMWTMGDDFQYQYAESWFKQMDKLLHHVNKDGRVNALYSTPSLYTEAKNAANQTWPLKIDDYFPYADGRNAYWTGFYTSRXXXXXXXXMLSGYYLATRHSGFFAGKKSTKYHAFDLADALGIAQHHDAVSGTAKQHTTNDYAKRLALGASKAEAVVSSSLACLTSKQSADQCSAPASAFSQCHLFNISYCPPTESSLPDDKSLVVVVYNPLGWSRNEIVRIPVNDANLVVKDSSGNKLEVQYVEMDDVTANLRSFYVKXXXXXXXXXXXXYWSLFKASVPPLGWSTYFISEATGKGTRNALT
T2 sequence (C0HJB3 563-981 limits assumed): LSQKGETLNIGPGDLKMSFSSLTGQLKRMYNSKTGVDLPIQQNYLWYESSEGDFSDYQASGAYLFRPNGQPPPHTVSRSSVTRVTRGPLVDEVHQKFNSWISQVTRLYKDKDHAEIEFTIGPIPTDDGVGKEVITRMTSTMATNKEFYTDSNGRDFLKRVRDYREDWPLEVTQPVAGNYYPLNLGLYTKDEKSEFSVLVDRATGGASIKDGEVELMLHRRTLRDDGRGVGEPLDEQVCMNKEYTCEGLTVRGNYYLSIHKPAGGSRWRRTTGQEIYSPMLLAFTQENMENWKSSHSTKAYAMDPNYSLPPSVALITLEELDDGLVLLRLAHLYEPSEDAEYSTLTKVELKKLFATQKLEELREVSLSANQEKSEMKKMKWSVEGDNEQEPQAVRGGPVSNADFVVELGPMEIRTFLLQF
In words: selectivity enzyme assay with JBM (4-MU-Man substrate). Type of experiment: biochemical, Jack bean. The method, then: as §1, with “Fig).” for “Fig). JBM and β-glucosidase from sweet almonds were purchased from Sigma Aldrich.”
KM values were calculated using the Michaelis-Menten kinetics Eq (3) v=vmax[S]/KM+[S] […]

A word on the Km: it is the substrate concentration at which the rate is half of its maximum. `Cc1cc(=O)oc2cc(O[C@@H]3O[C@H](CO)[C@@H](O)[C@H](O)[C@H]3O)ccc12` [4-MU-Glc, 4-methylumbelliferyl-β-D-glucopyranoside, reference compound]: the Km in experiment [1] (substrate of β-glucosidase from sweet almonds) worked out at 1900 ± 100 µM.

What is called IC50 is the concentration at which inhibition is half-maximal. `O[C@H]1[C@H]2[C@H](O)CCCN2C[C@H]1O` [swainsonine, reference compound]: the IC50 in experiment [2] came to 0.034 ± 0.0014 µM.

Regarding `Cc1cc(=O)oc2cc(O[C@H]3O[C@H](CO)[C@@H](O)[C@H](O)[C@@H]3O)ccc12` [4-MU-Man, 4-Methylumbellifer-7-yl-α-D-mannopyranoside, reference compound], the Km in experiment [2] (substrate of dGMII) is 3600 ± 300 µM; on JBM (substrate of JBM), 600 ± 60 µM.

Broadly, the inhibition is the percentage by which the read-out fell short of the control. Turning to `N#CC(C(=O)C1CCCCN1C(=O)c1cccnc1)c1ccccn1` (centres unmarked) [Compound 18], the mode of inhibition result in experiment [2] (IC50 at varying substrate concentrations 0.1 to 3 mM) is “non-competitive inhibition”. Further, the inhibition at 300 µM is about 46% in experiment [2] and 70% on JBM (at 300 μM, 0.4 mM 4-MU-Man). Moreover, in experiment [2] (based on the inhibitory activity observed in the fluorometric assay), the ligand efficiency entry is given as “approximately 0.20 kcal/mol”. In experiment [2] (dGMII, 4-MU-Man substrate, read-out: IC50), the IC50 worked out at 217 ± 44.3 µM. Further, the “inhibition of the β-glucosidase of sweet almonds” value in experiment [1] (at 300 μM, 1 mM 4-MU-Glc, pH 5.0) is “no significant inhibition; also recorded: did not exhibit significant inhibition”.

`O=C(Cc1ccn[nH]1)NC[C@@H](O)c1cc2ccccc2s1` [Compound 20]: in experiment [2], the inhibition at 300 µM was about 41%.
